In US10988458B2, “Apoptosis signal-regulating kinase 1 inhibitors and methods of use thereof” (Enanta Pharmaceuticals, Inc., priority 2017, dated 2021):

Molecular target: ASK1 kinase (Homo sapiens (Human), UniProt Q99683)
Test: ASK1 kinase inhibition, HTRF KinEASE-STK TR-FRET assay
Assay type: biochemical
Conditions: 5 nM ASK1, 1 uM STK3 peptide substrate, 100 uM ATP, 3 hours
Method: The ability (IC50) of compounds to inhibit ASK1 kinase activity was determined by HTRF® KinEASE™ Assay System.
ASK1 was purchased from Thermofisher (Catalogue #PV4011), ATP was purchased from Sigma (Catalogue #A7699), HTRF® KinEASE™ Assay System was obtained from Cisbio (Bedford, Mass.). ½ Area plate was purchased from Perkin Elmer (Catalogue ##6005560). HTRF® KinEASE™-STK is a generic method for measuring serine/threonine kinase activities using a time-resolved fluorescence resonance energy transfer (TR-FRET) immunoassay. The IC50 value for each compound was determined in the presence of compound (various concentration from 0 to 10 μM) and a fixed amount of ATP and peptide substrates. The test compound, 1 uM STK3 peptide substrate, and 5 nM of ASK1 kinase are incubated with kinase reaction buffer containing 50 mM HEPES pH 7.5, 0.01% BRIJ-35, 10 mM MgCl2, and 1 mM EGTA for 30 minutes. 100 uM ATP is added to start kinase reaction and incubated for 3 hours. The STK3-antibody labeled with Eu^3+-Cryptate and 125 nM streptavidin-XL665 are mixed in a single addition with stop reagents provided by the Cisbio kit used to stop the kinase reaction. Fluorescence is detected using an Envision Multilabeled 2014 reader from PerkinElmer. The Fluorescence is measured at 615 nm (Cryptate) and 665 nm (XL665) and a ratio of 665 nm/615 nm is calculated for each well. The resulting TR-FRET is proportional to the phosphorylation level. Staurosporine was used as the positive control. IC50 was determined by XLfit 5.3.
By using above method, the inhibition of ASK1 was tested for the compound of formula (I). IC50 ranges are as follows: A<1 nM; 1 nM B<10 nM; 10 nM<C<100 nM; 100 nM<D<1 μM; […].

ASK1 kinase, sequence (Q99683 whole entry): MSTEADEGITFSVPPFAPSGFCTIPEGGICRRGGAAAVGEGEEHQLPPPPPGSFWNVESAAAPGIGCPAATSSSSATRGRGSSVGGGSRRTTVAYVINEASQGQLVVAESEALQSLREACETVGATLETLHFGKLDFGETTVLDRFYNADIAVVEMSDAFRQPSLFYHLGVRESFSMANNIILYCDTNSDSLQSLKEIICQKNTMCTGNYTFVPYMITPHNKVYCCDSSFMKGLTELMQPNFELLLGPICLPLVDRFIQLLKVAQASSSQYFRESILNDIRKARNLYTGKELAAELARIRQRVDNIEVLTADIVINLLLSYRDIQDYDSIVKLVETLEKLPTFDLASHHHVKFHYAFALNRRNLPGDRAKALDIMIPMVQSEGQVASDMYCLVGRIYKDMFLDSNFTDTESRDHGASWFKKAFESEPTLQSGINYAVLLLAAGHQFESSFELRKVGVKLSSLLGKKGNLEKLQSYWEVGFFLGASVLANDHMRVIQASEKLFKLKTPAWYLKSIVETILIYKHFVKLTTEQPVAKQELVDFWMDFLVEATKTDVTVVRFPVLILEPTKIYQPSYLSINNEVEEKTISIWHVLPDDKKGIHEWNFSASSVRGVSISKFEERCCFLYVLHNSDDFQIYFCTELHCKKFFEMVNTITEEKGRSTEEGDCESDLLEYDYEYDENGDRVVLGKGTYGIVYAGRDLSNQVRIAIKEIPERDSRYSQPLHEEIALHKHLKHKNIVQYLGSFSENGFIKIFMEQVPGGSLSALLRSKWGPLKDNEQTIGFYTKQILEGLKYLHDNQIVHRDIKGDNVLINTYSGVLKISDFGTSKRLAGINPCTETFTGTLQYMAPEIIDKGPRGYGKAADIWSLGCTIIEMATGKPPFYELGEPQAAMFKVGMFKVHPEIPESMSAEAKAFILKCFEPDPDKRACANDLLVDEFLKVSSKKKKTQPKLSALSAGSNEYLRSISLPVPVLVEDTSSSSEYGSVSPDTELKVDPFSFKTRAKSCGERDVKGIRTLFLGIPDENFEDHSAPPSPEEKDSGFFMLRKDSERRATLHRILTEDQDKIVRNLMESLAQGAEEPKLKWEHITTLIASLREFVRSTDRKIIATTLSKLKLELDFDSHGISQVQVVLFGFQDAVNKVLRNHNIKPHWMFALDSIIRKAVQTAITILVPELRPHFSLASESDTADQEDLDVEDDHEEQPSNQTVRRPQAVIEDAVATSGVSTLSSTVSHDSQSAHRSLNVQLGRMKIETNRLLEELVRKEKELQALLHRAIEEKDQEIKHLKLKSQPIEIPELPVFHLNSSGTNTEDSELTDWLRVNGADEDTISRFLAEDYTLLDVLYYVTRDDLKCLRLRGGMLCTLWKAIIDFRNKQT

First: Cc1cc(F)c(C(=O)Nc2cccc(-n3cnnc3C(C)C)n2)cc1-n1cnc(C2CC2)c1 [Example 1c, 5-(4-cyclopropyl-1H-imidazol-1-yl)-2-fluoro-N-(6-(3-isopropyl-4H-1,2,4-triazol-4-yl)pyridin-2-yl)-4-methylbenzamide]
Second: Cc1cc(F)c(C(=O)Nc2cccc(-c3nnnn3C(C)C(=O)O)n2)cc1-n1cnc(C2CC2)c1 (centres unmarked) [Example 19a]
The IC50 of the first is higher: over 1000 nM for the first, 100 to 1000 nM for the second.

`Cc1cc(F)c(C(=O)Nc2cccc(-n3nnnc3C(C)C)n2)cc1-n1cnc(C(F)(F)F)c1` [Example 2b] and `CC(=O)OC[C@@H](C)n1nnnc1-c1cccc(NC(=O)c2cc(-n3cnc(C4CC4)c3)c(C)cc2F)n1` [Example 6a, (R)-2-(5-(6-(5-(4-cyclopropyl-1H-imidazol-1-yl)-2-fluoro-4-methyl-benzamido)pyridin-2-yl)-1H-tetrazol-1-yl)propyl acetate] fall in the same range of IC50: 100 to 1000 nM for the first, 100 to 1000 nM for the second.

For `Cc1cc(F)c(C(=O)Nc2ccnc(-c3nnn[nH]3)n2)cc1-n1cnc(C2CC2)c1` [Example 36a], the IC50 was over 1000 nM.
